# From US8685953B2, “Linear and cyclic guanidine derivatives, method of preparation and uses thereof” (Universita Degli Studi Di Siena, priority 2008, dated 2014)
# Counter-ions that a name gives are not always drawn. Like-named read-outs stand apart in the source and are kept apart here.
# Columns and labels:
# C. glabrata 70E = test: MIC determination by AFST-EUCAST standard methodology; assay type: cell-based; settings: for MIC50: C. glabrata 70E, 24 h, visually and spectrophotometrically, read-out: Antifungal activity, expressed as MIC50
# Experimental: (§1) Determination of MICs by AFST-EUCAST Standard Methodology
# (§2) Assay medium. The assay medium was RPMI […] without NaHCO3 and with L-glutamine (Sigma Aldrich, Italy), buffered at pH 7.0 with 0.165 M morpholinepropanesulphonic acid (Sigma Aldrich, Italy) and supplemented with 2% (w/v) glucose. The medium, prepared as double-strength solution, was sterilized by filtration and diluted 1:2 (v/v) with the fungal inoculum prepared in sterile distilled water.
# (§3) The yeast isolates were grown on Sabouraud dextrose agar (Oxoid, Madrid, Spain) for 48 h at 37° C. before testing. Suspensions were prepared by combining five distinct colonies of each culture of >1 mm diameter. A spectrophotometric procedure for inoculum preparation was used. The final inoculum suspension, prepared in sterile distilled water, contained between 0.5·10^5 and 2.5·10^5 cfu/mL.
# (§4) Stock solutions of test compounds were prepared in 100% dimethyl sulfoxide. Stock solutions were prepared as 100× concentration relative to the highest concentration in the antifungal activity test, and frozen at −70° C. until used.
# (§5) Sterile plastic micro titration plates containing flat-bottomed wells were used. The plates contained serial dilution of the antifungal agents with a volume of assay medium of 100 μL/well. Two drug-free medium wells were used as sterility and growth controls. The trays were inoculated with 100 μL/well of the final inoculum, with the exception of sterility control wells. The range of concentrations tested for each drug was 1.25-80 μM. The microtitration plates were incubated at 37° C. for 24 h. The minimal inhibitory concentrations (MICs) were determined at 24 h both visually and spectrophotometrically.
# (§6) By visual endpoint determination, MICs were determined according to a S-1-R scale, with S (susceptible) indicating an optical clear culture, I (intermediate susceptibility) indicating a slightly hazy culture, and R (resistant) indicating no reduction in turbidity. The MIC50 was defined as the lowest concentration of a drug which correspond to a S culture.
# (§7) Microtitration plates were stirred using a microtitration plate shaker before reading to ensure uniform turbidity. MICs were obtained by measuring the absorbance at 450 nm with a microtitration plate reader. The value of the blank was subtracted from reading of the rest of the wells. Two endpoints were defined for each antifungal agent tested, with MIC80 indicating the lowest drug concentration resulting in a reduction of growth of 80% or more (determined spectrophotometrically) compared with the growth of the control, and MIC50 indicating the lowest drug concentration resulting in a reduction in growth of 50% (determined spectrophotometrically) compared with the growth of the control. The MIC50 was also defined as the spectrophotometric endpoint.
# [1] = system: C. parapsilosis ATCC 34136; test: as above; assay type: cell-based; settings: visually and spectrophotometrically, read-out: Antifungal activity, expressed as MIC50
# Experimental: as §1, §2, §3, §4, §5, §6, §7
# C. tropicalis 86E = test: as above; assay type: cell-based; settings: 24 h, visually and spectrophotometrically, read-out: Antifungal activity, expressed as MIC50
# Experimental: as §1, §2, §3, §4, §5, §6, §7
# C. krusei 193T = test: as above; assay type: cell-based; settings: 24 h, visually and spectrophotometrically, read-out: Antifungal activity, expressed as MIC50
# Experimental: as §1, §2, §3, §4, §5, §6, §7
# C. parapsilosis 81E = test: as above; assay type: cell-based; settings: 24 h, visually and spectrophotometrically, read-out: Antifungal activity, expressed as MIC50
# Experimental: as §1, §2, §3, §4, §5, §6, §7
# C. parapsilosis 64E = test: as above; assay type: cell-based; settings: 24 h, visually and spectrophotometrically, read-out: Antifungal activity, expressed as MIC50
# Experimental: as §1, §2, §3, §4, §5, §6, §7
# C. krusei ATCC 14243 = test: as above; assay type: cell-based; settings: visually and spectrophotometrically, read-out: Antifungal activity, expressed as MIC50
# Experimental: as §1, §2, §3, §4, §5, §6, §7
# C. albicans 53T = test: as above; assay type: cell-based, Candida albicans; settings: 24 h, visually and spectrophotometrically, read-out: Antifungal activity, expressed as MIC50
# Experimental: as §1, §2, §3, §4, §5, §6, §7
# C. albicans 15T = test: as above; assay type: cell-based, Candida albicans; settings: 24 h, visually and spectrophotometrically, read-out: Antifungal activity, expressed as MIC50
# Experimental: as §1, §2, §3, §4, §5, §6, §7
# C. albicans ATCC 60193 = test: as above; assay type: cell-based, Candida albicans; settings: visually and spectrophotometrically, read-out: Antifungal activity, expressed as MIC50
# Experimental: as §1, §2, §3, §4, §5, §6, §7
# C. albicans 4T = test: as above; assay type: cell-based, Candida albicans; settings: 24 h, visually and spectrophotometrically; for MIC50: read-out: Antifungal activity, expressed as MIC50
# Experimental: as §1, §2, §3, §4, §5, §6, §7
# C. parapsilosis = test: MIC determination, summary over C. parapsilosis; assay type: cell-based; settings: Lodderomyces parapsilosis, stated jointly with C. glabrata; read-out: activity toward C. parapsilosis (MIC)
# Experimental: as §1, §2
# (§8) The yeast isolates were grown on Sabouraud dextrose agar (Oxoid, Madrid, Spain) for 48 h at 37° C. before testing. Suspensions were prepared by combining five distinct colonies of each culture of >1 mm diameter. […]
# (§9) Sterile plastic micro titration plates containing flat-bottomed wells were used. […] The minimal inhibitory concentrations (MICs) were determined at 24 h both visually and spectrophotometrically.
# (§10) By visual endpoint determination, MICs were determined according to a S-1-R scale, with S (susceptible) indicating an optical clear culture, I (intermediate susceptibility) indicating a slightly hazy culture, and R (resistant) indicating no reduction in turbidity. […]
# (§11) Microtitration plates were stirred using a microtitration plate shaker before reading to ensure uniform turbidity. MICs were obtained by measuring the absorbance at 450 nm with a microtitration plate reader. The value of the blank was subtracted from reading of the rest of the wells. […]
# C. albicans = test: MIC determination, summary over C. albicans strains; assay type: cell-based; settings: Candida albicans; text summary over all C. albicans strains; read-out: activity toward C. albicans (MIC)
# Experimental: as §1, §2, §8, §9, §10, §11
# C. krusei strains = test: MIC determination, summary over C. krusei strains; assay type: cell-based; settings: Pichia kudriavzevii; text summary over C. krusei strains; read-out: activity toward C. krusei strains (MIC)
# Experimental: as §1, §2, §8, §9, §10, §11
# [2] = Lodderomyces parapsilosis, ATCC34136, 24 h
# [3] = Pichia kudriavzevii, ATCC14243, 24 h
# [4] = Candida albicans, ATCC60193, 24 h
Structure (SMILES),MIC50 (C. glabrata 70E),MIC50 ([1]; 24 h),MIC50 (C. tropicalis 86E),MIC50 (C. krusei 193T),MIC50 (C. parapsilosis 81E),MIC50 (C. parapsilosis 64E),MIC50 (C. krusei ATCC 14243; 24 h),MIC50 (C. albicans 53T),MIC50 (C. albicans 15T),MIC50 (C. albicans ATCC 60193; 24 h),MIC50 (C. albicans 4T),MIC50 (C. glabrata 70E; Nakaseomyces glabratus),"MIC50 [1, 2]",MIC50 (C. tropicalis 86E; Candida tropicalis),MIC50 (C. krusei 193T; Pichia kudriavzevii),MIC50 (C. parapsilosis 81E; Lodderomyces parapsilosis),MIC50 (C. parapsilosis 64E; Lodderomyces parapsilosis),MIC50 (C. krusei ATCC 14243; [3]),MIC50 (C. albicans 53T; Candida albicans),MIC50 (C. albicans 15T; Candida albicans),also measured
N=C(NCCCCCCCCN1CCCCCCCCNC(=N)NC1=O)NCc1ccccc1 [Compound 13a],40 µM,80 µM,2.5 µM,10 µM,20 µM,20 µM,20 µM,2.5 µM,5 µM,2.5 µM,2.5 µM,,,,,,,,,,
N=C(N)NCCCCCCCCNCCCCCCCCNC(=N)NCC1CC1 [Compound 12c],20 µM,80 µM,5 µM,10 µM,20 µM,5 µM,5 µM,10 µM,20 µM,20 µM,10 µM,,,,,,,,,,
"OC(Cn1cncn1)(Cn1cncn1)c1ccc(F)cc1F [F, fluconazole, reference compound]",,,,,,,,,,,,209 µM,6.5 µM,52 µM,418 µM,13 µM,32 µM,209 µM,418 µM,209 µM,MIC50 (C. albicans ATCC 60193; [4]): 0.8 µM; MIC50 (C. albicans 4T; Candida albicans): 209 µM
CC=CCNC(=N)NCCCCCCCCN1CCCCCCCCNC(=N)NC1=O [Compound 13d],20 µM,5 µM,1.25 µM,5 µM,5 µM,5 µM,5 µM,2.5 µM,1.25 µM,2.5 µM,1.25 µM,,,,,,,,,,
"CC(C)=CCNC(=N)NCCCCCCCCN1CCCCCCCCNC(=N)NC1=O [Compound 15e, 1-[γ,γ-dimethylallyl]-3-[8-(4-imino-2-oxo-1,3,5-triazacyclotridec-1-yl)octyl]guanidine tri trifluoroacetate]",,,,,,,,,,,,80 µM,> 80 µM,20 µM,20 µM,40 µM,> 80 µM,10 µM,20 µM,20 µM,"MIC (C. parapsilosis): 40 to 80 µM; MIC (C. glabrata 70E; Nakaseomyces glabratus, 70E, stated jointly with C. parapsilosis, read-out: activity toward C. glabrata (MIC)): 40 to 80 µM; MIC50 (C. albicans ATCC 60193; [4]): 40 µM; MIC50 (C. albicans 4T; Candida albicans): 20 µM; MIC (C. albicans): 20 to 40 µM"
"N=C(NCCCCCCCCN1CCCCCCCCNC(=N)NC1=O)NCC1CC1 [Compound 15c, 1-[cyclopropylmethyl]-3-[8-(4-imino-2-oxo-1,3,5-triazacyclotridec-1-yl)octyl]guanidine tri trifluoroacetate]",,,,,,,,,,,,40 µM,> 80 µM,1.25 µM,10 µM,40 µM,20 µM,10 µM,2.5 µM,2.5 µM,MIC50 (C. albicans ATCC 60193; [4]): 2.5 µM; MIC50 (C. albicans 4T; Candida albicans): 2.5 µM; MIC (C. albicans): 2.5 µM; MIC (C. krusei strains): 10 µM
"C#CCNC(=N)NCCCCCCCCN1CCCCCCCCNC(=N)NC1=O.O=C(O)C(F)(F)F.O=C(O)C(F)(F)F.O=C(O)C(F)(F)F [Compound 15b, 1-[propargyl]-3-[8-(4-imino-2-oxo-1,3,5-triazacyclotridec-1-yl)octyl]guanidine tri trifluoroacetate]",,,,,,,,,,,,80 µM,40 µM,5 µM,40 µM,80 µM,40 µM,80 µM,5 µM,2.5 µM,"MIC50 (C. albicans ATCC 60193; [4]): 2.5 µM; Antifungal activity, expressed as MIC50 (C. albicans 4T): resistant; MIC50 (C. albicans 4T; Candida albicans): 80 µM"
CC(C)=CCNC(=N)NCCCCCCCCN1CCCCCCCCNC(=N)NC1=O [Compound 13f],80 µM,>80 µM,20 µM,20 µM,40 µM,>80 µM,10 µM,20 µM,20 µM,40 µM,20 µM,,,,,,,,,,
C=C(C)CNC(=N)NCCCCCCCCN1CCCCCCCCNC(=N)NC1=O [Compound 13e],80 µM,>80 µM,40 µM,80 µM,>80 µM,>80 µM,40 µM,40 µM,20 µM,20 µM,40 µM,,,,,,,,,,
C#CCNC(=N)NCCCCCCCCN1CCCCCCCCNC(=N)NC1=O [Compound 13b],80 µM,40 µM,5 µM,40 µM,80 µM,40 µM,80 µM,5 µM,2.5 µM,2.5 µM,80 µM,,,,,,,,,,
CC(C)=CCNC(=N)NCCCCCCCCNCCCCCCCCNC(=N)N [Compound 12f],80 µM,>80 µM,20 µM,20 µM,40 µM,>80 µM,40 µM,80 µM,40 µM,80 µM,80 µM,,,,,,,,,,
"C=C(C)CNC(=N)NCCCCCCCCN1CCCCCCCCNC(=N)NC1=O [Compound 15d, 1[β-methylallyl]-3-[8-(4-imino-2-oxo-1,3,5-triazacyclotridec-1-yl)octyl]guanidine tri trifluoroacetate]",,,,,,,,,,,,80 µM,> 80 µM,40 µM,80 µM,> 80 µM,> 80 µM,40 µM,40 µM,20 µM,MIC50 (C. albicans ATCC 60193; [4]): 20 µM; MIC50 (C. albicans 4T; Candida albicans): 40 µM
"N=C(NCCCCCCCCN1CCCCCCCCNC(=N)NC1=O)NCc1ccccc1 [Compound 15a, 1-[benzyl]-3-[8-(4-imino-2-oxo-1,3,5-triazacyclotridec-1-yl)octyl]guanidine tri trifluoroacetate]",,,,,,,,,,,,40 µM,80 µM,2.5 µM,10 µM,20 µM,20 µM,20 µM,2.5 µM,5 µM,MIC50 (C. albicans ATCC 60193; [4]): 2.5 µM; MIC50 (C. albicans 4T; Candida albicans): 2.5 µM
